Values after ≈ are worked out from the molar mass of the structure shown.
Legend:
[1] = In vitro dissolution of indomethacin under sink conditions (USP paddle); format: physicochemical; settings: 25 mg indomethacin, phosphate buffer pH 7.2, sink conditions
Description: DSC was performed using TA Instruments Q100 differential scanning calorimeter. A 15 mg sample was heated in an aluminium pan at a rate of […] over a temperature range of 25-200° C., under a flow of dry nitrogen gas (80 ml/min). Instrument calibration was undertaken using an indium standard. Powder XRD patterns were obtained using Philips (PW 1050/25) X-ray diffractometer with CoKα radiation (45 kV, 35 mA). The samples were scanned between 10-50° (2θ) at a rate of 1.0°/min. […] The HPLC system (Hewlett Packard 1100) consisted of a series […] auto sampler and G1314A variable UV detector (Shimadzu Corporation). Separation was achieved using a LiChrospher 100 RP-18 analytical column (5 μm, 100 mm×4.6 mm i.d.). […] All chromatographic separations were performed at room temperature at a flow rate of 1 mL/min. The column eluent was monitored at a wavelength of 320 nm. […] The dissolution tests under sink conditions were performed using a USP paddle system (Vankel) and kept at a controlled 37° C. […] The paddle was rotated at 50 rpm. Samples (5 mL) were taken every 15 minutes for 3 h. […] The samples were measured using HPLC. […] With the conventional assumption that the rate and extent of drug dissolution directly reflects the concentration of readily absorbable drug in the intestinal lumen, it is proposed that capsules have the potential to enhance the oral absorption process. […]

[2] = Solubility of celecoxib in Miglyol oil; format: physicochemical; settings: oil or lipid
prostaglandin E2 = settings: reported for humans, based on inhibitory effect on prostaglandin E2; cited from earlier work
[3] = after oral delivery; cited from earlier work
[4] = Equilibrium solubility of celecoxib in phosphate buffer containing SLS; format: physicochemical; settings: for folds of saturation volume (FSV): 900 ml media for 2 mg celecoxib; for solubility thermodynamic at 48 h: phosphate buffer, 37 °C, thermodynamic from solid
Description: The mixture was shaken in a thermostated mixer chamber (37° C.) for 48 h. Equilibrated samples were centrifuged at 9,400 g for 15 min to remove undissolved materials. The amount of celecoxib dissolved was assayed using the HPLC method outlined above.

[5] = Distribution ratio of celecoxib in Miglyol oil and phosphate buffer; format: physicochemical; settings: Miglyol oil and blank phosphate buffer
[6] = cited from earlier work
[7] = In vitro dissolution study of celecoxib formulations (USP type II paddle); format: physicochemical; settings: phosphate buffer, 0.5% SLS, 37° C.
Description: The in vitro dissolution study was performed in 900 ml of phosphate buffer (0.05 M, pH 7.2) containing 0, 0.05, and 0.5% (w/v) SLS, using USP 23 type II apparatus (paddle method) operating at 75±0.02 rpm. Each sample, containing ˜2 mg of celecoxib (equivalent to the amount used in the in vivo studies), was added into the dissolution medium maintained at 37±0.5° C. Aliquots of 3 ml were drawn at fixed time points and replaced with an equal volume of fresh dissolution medium. The drawn samples were centrifuged at 9,400 g for 15 min to remove undissolved materials. The supernatant was subjected to another cycle of centrifugation under the same conditions. An aliquot of 100 μl was taken from the middle portion of each centrifuged samples before diluted 2-fold with acetonitrile. […] The amount of celecoxib dissolved in the dissolution media was analysed by HPLC as described previously.
SLS was employed as a wetting and solubilising agent in the dissolution medium for simulating the sink effect in the gastrointestinal tract. The dissolution profiles of celecoxib from various formulations are illustrated in FIG. 3. […] The influence of silica nanoparticle layers of different hydrophobicity in controlling drug release from homogenised liquid emulsions has been previously investigated (Simovic et al., 2007). Here, the dissolution profiles of celecoxib from spray-dried capsules formulated with hydrophilic silica were obtained. Two dissolution parameters were evaluated from the study employing sink conditions: the dissolution efficiency (% DE), and the time to achieve 50% of drug dissolution (t50%) (Table 2). % DE is the area under the dissolution curve between two specified time points expressed as a percentage of the area of the rectangle described by 100% dissolution in the same time intervals, which can be calculated using Eq. (II): […]

Structure (SMILES) | t50% (time taken to achieve 50% of drug dissolution) [1] [min] | solubility [2] [µg/mL] | minimum effective pain-relieving plasma concentration (prostaglandin E2) [ng/mL] | Tmax [3] | folds of saturation volume (FSV) ([4]; 0% SLS) | folds of saturation volume (FSV) ([4]; 0.05% SLS) | folds of saturation volume (FSV) ([4]; 0.25% SLS) | folds of saturation volume (FSV) ([4]; 0.5% SLS) | folds of saturation volume (FSV) ([4]; 1.0% SLS) | solubility thermodynamic at 48 h ([4]; pH 7.2, aqueous buffer, phosphate buffer pH 7.2, 0% SLS) [µg/mL] | solubility thermodynamic at 48 h ([4]; pH 7.2, aqueous with cosolvent or surfactant or cyclodextrin, 0.05% SLS) [µg/mL] | solubility thermodynamic at 48 h ([4]; pH 7.2, aqueous with cosolvent or surfactant or cyclodextrin, 0.25% SLS) [µg/mL] | solubility thermodynamic at 48 h ([4]; pH 7.2, aqueous with cosolvent or surfactant or cyclodextrin, 0.5% SLS) [µg/mL] | solubility thermodynamic at 48 h ([4]; pH 7.2, aqueous with cosolvent or surfactant or cyclodextrin, 1.0% SLS) [µg/mL] | distribution ratio (log D) [5] | log P [6] | t50% (time to achieve 50% of drug dissolution) [7] [min] | Dissolution efficiency (% DE) ([7]; t = 5 min) [%] | Dissolution efficiency (% DE) ([7]; t = 15 min) [%] | Dissolution efficiency (% DE) ([7]; t = 180 min) [%]
COc1ccc2c(c1)c(CC(=O)O)c(C)n2C(=O)c1ccc(Cl)cc1 [Indomethacin, 1-(4-chlorobenzoyl)-5-methoxy-2-methyl-1-H-indole-3-acetic acid] | 58.8 ± 0.5 |  |  |  |  |  |  |  |  |  |  |  |  |  |  |  |  |  |  | 
Cc1ccc(-c2cc(C(F)(F)F)nn2-c2ccc(S(N)(=O)=O)cc2)cc1 [celecoxib, 4-[5-(4-methylphenyl)-3-(trifluoromethyl)pyrazol-1-yl]benzenesulfonamide] |  | ~10000 (≈ 26200 µM) | ~155 | approximately three | 0.9 | 1.0 | 1.4 | 3.6 | 53.6 | 2.11 ± 0.01 (≈ 5.53 µM) | 2.33 ± 0.15 (≈ 6.11 µM) | 3.2 ± 0.16 (≈ 8.39 µM) | 8 ± 0.39 (≈ 21 µM) | 119 ± 29 (≈ 312 µM) | 3.7 | ≈ 3.5 | 144.8 | 8.9 ± 1 | 24.3 ± 5 | 48.9 ± 3

— patent US8778400B2, “Nanoparticle-stabilized capsule formulation for treatment of inflammation” (University of South Australia, priority 2008, dated 2014)
